Numbering of substitutions follows the chain as printed. Where two headings read alike, the source gives them in different places. Ends that are not written are not given here.

The values below come from PMC3445454, “Broad and Cross-Clade CD4^+ T-Cell Responses Elicited by a DNA Vaccine Encoding Highly Conserved and Promiscuous HIV-1 M-Group Consensus Peptides” (PLoS ONE, 2012).

Holding throughout (assay): biochemical
Assay type in all cases: binding

The target of experiment [1] is HLA-DR DRB1*03:01 (Homo sapiens, UniProt P01903+P01911, A100K/A102G/A103R/A169T/F55Y/I96L/K41T/L162R/M171V/P40S/Q125H/Q178H/Q39Y/R42S/S66N/T106N/T262R/W38E/Y61H).
HLA-DR DRB1*03:01, sequence (P01903 26-254 limits assumed, other chains not shown): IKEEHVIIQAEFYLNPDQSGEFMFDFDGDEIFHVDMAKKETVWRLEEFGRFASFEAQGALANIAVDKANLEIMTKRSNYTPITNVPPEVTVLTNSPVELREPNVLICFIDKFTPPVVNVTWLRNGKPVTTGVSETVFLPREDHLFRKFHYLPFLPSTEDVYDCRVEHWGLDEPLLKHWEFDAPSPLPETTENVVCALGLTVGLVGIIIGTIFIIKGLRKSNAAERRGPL
The target in experiment [2] is T1, HLA-DP DPA1*02:01/DPB1*14:01 (Homo sapiens, UniProt P04440+P20036, A65V/A84D/A85E/E86D/F191V/F38H/G113D/G114E/G40L/I94L/K142R/L158P/L37V/M105V/M116V/M62Q/P115A/Q81R/R125K/T114A/T199I/T259P).
T1 sequence (P20036 29-260 A42M/M62Q/Q81R/T114A/K142R/L158P/F191V/T259P): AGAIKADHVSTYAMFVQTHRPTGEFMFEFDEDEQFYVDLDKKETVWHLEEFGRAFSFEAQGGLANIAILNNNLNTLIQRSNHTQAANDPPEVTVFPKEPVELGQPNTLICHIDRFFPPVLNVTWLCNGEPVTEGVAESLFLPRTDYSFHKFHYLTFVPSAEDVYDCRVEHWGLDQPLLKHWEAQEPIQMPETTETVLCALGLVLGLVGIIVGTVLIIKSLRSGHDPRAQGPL
T1 sequence (P04440 30-258 L37V/F38H/G40L/A65V/A84D/A85E/E86D/I94L/M105V/G113D/G114E/P115A/M116V/R125K/T199I/R223Q): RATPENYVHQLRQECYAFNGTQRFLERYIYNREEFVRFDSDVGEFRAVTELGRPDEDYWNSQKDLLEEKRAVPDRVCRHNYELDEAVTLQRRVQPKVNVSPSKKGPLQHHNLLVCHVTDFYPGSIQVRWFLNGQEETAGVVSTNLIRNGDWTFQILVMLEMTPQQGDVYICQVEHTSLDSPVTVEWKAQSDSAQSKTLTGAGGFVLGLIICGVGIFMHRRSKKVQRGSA

Experiment [3] concerns the target HLA-DR DRB1*10:01 (Homo sapiens, UniProt P01903+P01911, A100R/A169T/D57E/F55L/F60V/F69Y/F76Y/I96L/L162R/M171V/P40V/Q260P/Q39E/Q99R/R195Q/R42F/S149N/S66Y/T210M/V115G/V67A/W38E/Y59R/Y61H).
Experiment [4] has as its target HLA-DR DRB1*13:02 (Homo sapiens, UniProt P01903+P01911, A100E/A169T/K41T/L162R/M171V/P40S/Q125H/Q178H/Q39Y/Q99D/R42S/S66N/T262R/V115G/W38E/Y61H).
The target in experiment [5] is HLA-DR DRB1*11:01 (Homo sapiens, UniProt P01903+P01911, A100R/A169T/A87E/I96F/K41T/L162R/M171V/P40S/Q125H/Q178H/Q39Y/Q99D/R42S/S66Y/T262R/V115G/W38E).
HLA-DR DRB1*11:01, sequence (P01903 26-254 limits assumed, other chains not shown): as the sequence (P01903 26-254 limits assumed, other chains not shown) above
The target in experiment [6] is HLA-DR DRB1*09:01 (Homo sapiens, UniProt P01903+P01911, A100R/A103E/D57H/D86V/F55Y/F60I/F76Y/I96F/K127E/L162R/M171V/P40D/Q125H/Q99R/R33Q/R42F/S133A/S66N/T210M/V115G/W38K/Y107V/Y59G/Y89S).
For experiment [7], the target named is HLA-DR DRB3*02:02 (Homo sapiens, UniProt P01903+P79483, A212P/D57E/F66Y/L67A/R103Q/R218S/R40L/S89Y/T80R/V86D/Y55F/Y59H).
HLA-DR DRB3*02:02, sequence (P01903 26-254 limits assumed): as the sequence (P01903 26-254 limits assumed, other chains not shown) above
HLA-DR DRB3*02:02, sequence (P79483 30-266 R40L/Y55F/D57E/Y59H/F66Y/L67A/T80R/V86D/S89Y/R103Q/A212P/R218S limits assumed): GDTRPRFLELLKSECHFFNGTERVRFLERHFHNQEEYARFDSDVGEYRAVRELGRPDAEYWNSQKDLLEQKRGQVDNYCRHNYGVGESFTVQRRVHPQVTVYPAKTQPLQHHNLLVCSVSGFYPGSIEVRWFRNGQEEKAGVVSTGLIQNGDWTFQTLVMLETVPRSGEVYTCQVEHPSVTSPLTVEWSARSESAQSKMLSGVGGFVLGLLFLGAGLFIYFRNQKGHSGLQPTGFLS
In experiment [8] the target is T2, HLA-DP DPA1*01:03/DPB1*03:01 (Homo sapiens, UniProt P04440+P20036, A65V/A84D/A85E/E86D/F38Y/G113D/G114E/G40L/I94L/L37V/M105V/M116V/P115A/R125K/T199I).
T2 sequence (P20036 29-260): T1 sequence (P20036 29-260 A42M/M62Q/Q81R/T114A/K142R/L158P/F191V/T259P) with M14A, Q34M, R53Q, A86T, R114K, P130L, V163F, P231T
T2 sequence (P04440 30-258 L37V/F38Y/G40L/A65V/A84D/A85E/E86D/I94L/M105V/G113D/G114E/P115A/M116V/R125K/T199I): T1 sequence (P04440 30-258 L37V/F38H/G40L/A65V/A84D/A85E/E86D/I94L/M105V/G113D/G114E/P115A/M116V/R125K/T199I/R223Q) with H9Y, Q194R

For experiment [9], the target named is HLA-DR DRB1*07:01 (Homo sapiens, UniProt P01903+P01911, A100R/A102G/A103Q/D57E/D86V/E43K/F76Y/K127E/L162R/M171V/P40G/Q125H/Q99D/R33Q/R42Y/R54Q/S133A/S66F/T210M/V115G/Y107V/Y59L/Y89S).
Experiment [10] addresses HLA-DR DRB1*12:01 (Homo sapiens, UniProt P01903+P01911, A100R/A169T/D57E/D86V/F55L/H45Y/K41T/L162R/M171V/P40S/Q125H/Q178H/Q39Y/Q99D/R42G/S66L/T262R/V114A/V67L/W38E/Y59H/Y61H/Y89S).
Setting [11] is: read-out: Binding capacity/IC50 (nM) DRB1*03:01.
[12] abbreviates: read-out: Binding capacity/IC50 (nM) DPA1*02:01 DPB1*14:01.
Setting [13] is: read-out: Binding capacity/IC50 (nM) DRB1*10:01.
Where [14] appears, read: read-out: Binding capacity/IC50 (nM) DRB1*13:02.
The mark [15] stands for this setting: read-out: Binding capacity/IC50 (nM) DRB1*11:01.
The mark [16] stands for this setting: read-out: Binding capacity/IC50 (nM) DRB1*09:01.
[17] abbreviates: read-out: Binding capacity/IC50 (nM) DPA1*01:03 DPB1*03:01.
[18] abbreviates: read-out: Binding capacity/IC50 (nM) DRB1*07:01.
Where [19] appears, read: read-out: Binding capacity/IC50 (nM) DRB1*12:01.
Setting [20] is: read-out: Binding capacity/IC50 (nM) DRB3*02:02.

HLA-DR DRB1*13:02, sequence (P01903 26-254 limits assumed, other chains not shown): as the sequence (P01903 26-254 limits assumed, other chains not shown) above

`CC[C@H](C)[C@H](NC(=O)[C@H](CCCCN)NC(=O)[C@@H](NC(=O)[C@@H](NC(=O)[C@@H](N)CCC(N)=O)[C@@H](C)CC)[C@@H](C)O)C(=O)N[C@@H](CCC(N)=O)C(=O)N[C@@H](CC(N)=O)C(=O)N[C@@H](Cc1ccccc1)C(=O)N[C@@H](CCCNC(=N)N)C(=O)N[C@H](C(=O)N[C@@H](Cc1ccc(O)cc1)C(=O)N[C@@H](Cc1ccc(O)cc1)C(=O)N[C@@H](CCCNC(=N)N)C(=O)N[C@@H](CC(=O)O)C(=O)N[C@@H](CO)C(=O)N[C@@H](CCCNC(=N)N)C(=O)N[C@@H](CC(=O)O)C(=O)N1CCC[C@H]1C(=O)N[C@H](C(=O)N[C@@H](Cc1c[nH]c2ccccc12)C(N)=O)[C@@H](C)CC)C(C)C` [integrase(216-235)]: the IC50 in experiment [1] (setting [11]) turned out to be 11 nM; in experiment [2] (setting [12]), 145 nM; in experiment [3] (setting [13]) it was 45 nM; in [4] (setting [14]), 1930 nM; in experiment [5] (setting [15]), 288 nM; in experiment [6] (setting [16]) it was 542 nM. For the same compound, the IC50 in [7] turned out to be 414 nM; in experiment [8] (setting [17]) it was 83 nM; in [9] (setting [18]), 63 nM; in experiment [10] (setting [19]) it was 6.6 nM.
Take `CC(C)C[C@H](NC(=O)[C@H](CCCCN)NC(=O)[C@@H](NC(=O)[C@H](CC(C)C)NC(=O)[C@@H]1CCCN1C(=O)[C@@H]1CCCN1C(=O)[C@@H](NC(=O)[C@H](CC(N)=O)NC(=O)[C@@H](NC(=O)[C@H](Cc1ccccc1)NC(=O)[C@H](CCC(=O)O)NC(=O)[C@H](Cc1c[nH]c2ccccc12)NC(=O)[C@@H](N)CCC(=O)O)C(C)C)[C@@H](C)O)C(C)C)C(=O)N[C@@H](Cc1c[nH]c2ccccc12)C(=O)N[C@@H](Cc1ccc(O)cc1)C(N)=O` [RT(413-427)]: the IC50 was found to be 469 nM in [1]; 1200 nM in experiment [2] (setting [12]); 12 nM in experiment [3]; 2220 nM in experiment [4]; 312 nM in experiment [5]; 57 nM in experiment [6]. The IC50 in [7] (setting [20]) is 4.4 nM; in experiment [8] (setting [17]) it was 5710 nM; in experiment [9], 39 nM; in experiment [10], 260 nM.
For `CC[C@H](C)[C@H](NC(=O)[C@H](C)NC(=O)[C@@H](N)CCC(=O)O)C(=O)N[C@H](C(=O)N[C@@H](CCCNC(=N)N)C(=O)N[C@H](C(=O)N[C@@H](CC(C)C)C(=O)N[C@@H](CCC(N)=O)C(=O)N[C@@H](CCC(N)=O)C(=O)N[C@@H](CC(C)C)C(=O)N[C@@H](CC(C)C)C(=O)N[C@@H](Cc1ccccc1)C(=O)N[C@H](C(=O)N[C@@H](Cc1c[nH]cn1)C(=O)N[C@@H](Cc1ccccc1)C(=O)N[C@@H](CCCNC(=N)N)C(=O)N[C@H](C(=O)NCC(=O)N[C@@H](CS)C(=O)N[C@@H](CCC(N)=O)C(=O)N[C@@H](Cc1c[nH]cn1)C(=O)N[C@@H](CO)C(=O)N[C@@H](CCCNC(=N)N)C(N)=O)[C@@H](C)CC)[C@@H](C)CC)[C@@H](C)CC)[C@@H](C)CC` [vpr(58-80)], the IC50 in experiment [1] was 14400 nM; in experiment [2], 3570 nM; in [3], 170 nM; in experiment [4], 5010 nM; in [5], 724 nM; in experiment [6], 477 nM. Also, the IC50 in experiment [7] (setting [20]) came to 4090 nM; in experiment [8], 348 nM; in experiment [9], 885 nM; in [10], 845 nM.
With “VVIQDNSDIKVVPRRKAKII-NH2 [integrase(249-268)]”, the IC50 amounted to 90 nM in experiment [1]; 3980 nM in [2] (setting [12]); 913 nM in experiment [3]; 5420 nM in experiment [4]; 28 nM in experiment [5]; 7040 nM in [6]. In addition, the IC50 came to 4530 nM in [7] (setting [20]), 350 nM in experiment [8] (setting [17]), 5710 nM in experiment [9] and 2280 nM in experiment [10].
As for `CSCC[C@H](NC(=O)[C@H](CCCCN)NC(=O)[C@H](C)NC(=O)[C@H](Cc1ccc(O)cc1)NC(=O)[C@H](CCCCN)NC(=O)CNC(=O)[C@@H](NC(=O)[C@H](CCCCN)NC(=O)[C@H](CC(C)C)NC(=O)[C@H](CC(N)=O)NC(=O)[C@H](CCCCN)NC(=O)[C@H](Cc1ccccc1)NC(=O)[C@@H]1CCCN1C(=O)[C@H](CCC(=O)O)NC(=O)[C@@H](N)CCC(N)=O)[C@@H](C)O)C(N)=O` [RT(343-357)], the IC50 came out at 23300 nM in experiment [1]; 15100 nM in [2]; 19 nM in experiment [3]; 25000 nM in experiment [4]; 428 nM in experiment [5]; 335 nM in experiment [6]. Further, the IC50 in experiment [7] stood at 8610 nM; in [8], 6510 nM; in experiment [9] it was 6210 nM; in experiment [10], 239 nM.
As to `CC[C@H](C)[C@H](NC(=O)[C@@H](NC(=O)[C@H](CCCCN)NC(=O)[C@@H](NC(=O)[C@@H]1CCCN1C(=O)[C@H](Cc1c[nH]c2ccccc12)NC(=O)[C@H](CCCNC(=N)N)NC(=O)CNC(=O)[C@H](C)NC(=O)[C@H](CC(C)C)NC(=O)[C@H](CCCCN)NC(=O)[C@H](CC(C)C)NC(=O)[C@@H](NC(=O)[C@H](Cc1ccccc1)NC(=O)[C@H](Cc1ccc(O)cc1)NC(=O)[C@H](C)NC(=O)[C@@H](NC(=O)[C@@H](N)CCC(=O)O)[C@@H](C)O)[C@@H](C)CC)C(C)C)C(C)C)C(N)=O` [integrase(96-113)], the IC50 came out at 224 nM in experiment [1] (setting [11]); 12800 nM in experiment [2] (setting [12]); 13 nM in experiment [3] (setting [13]); 4410 nM in experiment [4] (setting [14]); 27 nM in experiment [5] (setting [15]); 390 nM in experiment [6] (setting [16]). Further, the IC50 in experiment [7] (setting [20]) turned out to be 7470 nM; in experiment [8] (setting [17]), 1020 nM; in experiment [9] (setting [18]), 1380 nM; in experiment [10] (setting [19]), 1510 nM.
